From patent US20220282285A1, “GENETICALLY-EDITED IMMUNE CELLS AND METHODS OF THERAPY” (REGENTS OF THE UNIVERSITY OF MINNESOTA, priority 2019, published 2022)
Entries after “also recorded” stand apart in the source; their conditions may differ.

Columns and labels:
T cells = assay: Viable cell count and percentage of viable cells post-electroporation with supplements; format: cell-based; details: day 7 post-electroporation; NAC 10 mM for duration, anti-IFNAR2 antibody once at 10 μg/ml
Protocol: This example examined the effects of treatment with NAC, Akt VIII inhibitor, or anti-IFNAR2, on post-electroporation T cell survival as well as transfection efficiency. In these experiments, 2×10^6 cells in 100 μl were electroporated non-sequentially at 36 hr post-stimulation. After electroporation, the cells were recovered for 15 min, and then split equally among 5 different supplement conditions, as listed in Table 5. NAC was added to the medium at 10 mM for duration, Akt VIII inhibitor at 8 μM for duration, and anti-IFNAR2 antibody was added to the media once at 10 μg/ml. “Nuc” in Table 2 and FIGS. 22A-22D denotes the condition where exogenous DNA was added to be inserted into cell genome at 20 μg (“+20 μg), 35 μg (“+35 μg), or 50 μg (“+50 μg”).
FIG. 23A-FIG. 23C show graphs of viable cell count in each condition on day 2, 5, and 7 post-electroporation, respectively. FIG. 23D-FIG. 23F show graphs of percentage of viable cells in each condition on day 2, 5, and 7 post-electroporation, respectively.

primary T cells = assay: Transfection efficiency: GFP or mTCR transgene expression by FACs on day 7 / day 14 post electroporation; format: cell-based, human; details: for stable transgene expression (percent GFP or mTCR): 14 days post-transfection, electroporated on day 0 or day 1 post stimulation (FIG. 18); for transgene expression (day 7 percent GFP or mTCR expression): T cells electroporated on day 0 or day 1 post stimulation (FIG. 17); for transgene expression (percent GFP+ or mTCR+ cells): day 14 post electroporation of plasmid donor on day 0 or day 1, Cas9, gRNA (FIG. 16)
Protocol: Electroporated T cells are analyzed by flow cytometry ˜24-48 hours after transfection to test for expression of GFP or other fluorochrome (marker for transgene expression). For knockout experiments, analysis for loss of target protein is conducted between 7-9 days post transfection. For knock-in experiments, measure marker expression on day 7 and day 14. Cells are prepared by washing with chilled 1×PBS with 0.5% FBS and stain according to manufacturer recommendations for each antibody.
Transfection efficiency was also assessed by examining the stable expression of the transgenes introduced by the plasmids. FIG. 15C is a graph showing percentage of GFP-expressing cells in each group of cells, and FIG. 15D is a graph showing percentage of mTCR-expressing cells in each group of cells. In these experiments, the primary T cells were transfected through electroporation with plasmid donor expressing GFP or mTCR on day 0 or 1, FACs was performed to examine the transgene expression on day 14 post electroporation.
This example examined the effects of treatment of electroporated T cells with DNase, RS-1, or both DNase and RS-1, on transfection efficiency. Primary T cells were transfected through electroporation with plasmid donor expressing GFP or mTCR on day 0 or 1, FACs was performed to examine the transgene expression on day 14 post electroporation.
FIGS. 17A-17D are FACs density plots of T cells on day 7 post electroporation.
FIGS. 18A-18B are FACs density plots of T cells on day 14 post electroporation.

[1] = test system: T cells from donors 055330, 119866, 120534; assay: FACs analysis of electroporation efficiency (mTCR), single or sequential electroporation; format: cell-based, human
activated T cell culture = assay: Cell clumping / T cell survival 24 hours following electroporation with plasmid donor vector; format: cell-based, human; details: DNase in culture medium vs none
Protocol: • (a) Stimulated T cells are electroporated using the Neon Transfection System (100 uL or 10 ul Kit, Invitrogen, Life Technologies). • (b) Pellet cells and wash once with PBS or T buffer. • (c) Resuspend cells at a density of […] in 10 uL of T buffer for 10 ul tip, and 1×10^6 cells in 100 ul T buffer for 100 ul tips. • (d) Add specified mass of mRNA/DNA and electroporated at 1400 V, 10 ms, 3 pulses. • a. For knockout using all mRNA: • i. 100 ul tip: 15 ug Cas9 mRNA, 10 ug gRNA-RNA • ii. 10 ul tip: 1.5 ug Cas9 mRNA, 1 ug gRNA-RNA • b. When including plasmid donor for knock-in: • i. 100 ul tip: 5-20 ug plasmid • ii. 10 ul tip: 0.5-2 ug plasmid • c. For sequential electroporations: • On 0 hr timepoint deliver the amount of Cas9 specified in “a” • ii. At time point 0 hr and 6-24 hr, deliver gRNA and plasmid together in amounts specified in “a” and “b”. • (e) After transfection, plate cells at 3000 cells/ul in antibiotic free culture media containing 10 ug/ml DNase I and incubate at 37° C. in 5% CO2 for ˜20 minutes. • (f) After recovery period, add 2 times volume of antibiotic containing media to well and culture at 37° C. in 5% CO2. rAAV Transduction of CD3+ T Cells • (a) Thaw rAAV on ice and mix well prior to addition to cells. • (b) Add specified MOI at the following timepoints post-electroporation • a. For Cas9 mRNA edited cells: • i. Add virus 4-6 hours post • b. […]

Primary human T cells = assay: Percent recovery of viable transfected cells 24 hr post electroporation by flow cytometry; format: cell-based; details: for percent recovery of the transfected cells: 24 hr post electroporation, DNase 10 μg/ml in recovery media
Protocol: This example examined the effect of DNase on post-electroporation T cell survival as well as transfection efficiency. Primary human T cells were cultured and stimulated with IL-2, IL-7, and IL-15. Later the T cells were either pulsed (control) or transfected with 1.5 μg of pMND-GFP plasmid (about 7.5 kb) at 36 hr or 48 hr post-stimulation. For comparison, DNase was added to recovery media of one group of transfected cells at 10 μg/ml. Cells were incubated in this recovery media following electroporation for 30 min. And after recovery, 2 times volume of complete media was added without any wash step (therefore diluted DNase remained in the media).
Cells were analyzed 24 hr post electroporation by flow cytometry to determine the percentage of recovered viable cells, as shown in FIG. 15A. FIG. 15B is a graph showing the percent recovery of the transfected cells in each group. DNase increased percent recovery in both “36 hr pMND-GFP” group, where cells were transfected with pMND-GFP plasmid at 36 hr post-stimulation, and “48 hr pMND-GFP” group, where cells were transfected with pMND-GFP at 48 hr post-stimulation.

[2] = donor 055330, 36 hours post stimulation or 36 hours post stimulation and 6 hours post initial electroporation
[3] = donor 119866, 36 hours post stimulation or 36 hours post stimulation and 6 hours post initial electroporation
[4] = donors 055330 and 119866 at 24 hours post initial electroporation, donor 120534 at 36 hours post stimulation or plus 6 hours (FIG. 21)
[5] = T cells transfected on day 1, day 14 post electroporation, plasmid donor, Cas9, gRNA
[6] = day 14 post electroporation of plasmid donor on day 0 or 1, with vs without DNase

Molecule | cell viability (T cells) | stable transgene expression (percent GFP or mTCR) (primary T cells) | transgene expression (day 7 percent GFP or mTCR expression) (primary T cells) | transgene expression (percent GFP+ or mTCR+ cells) (primary T cells) | transgene (mTCR) expression, electroporation efficiency [1, 2] | transgene (mTCR) expression, electroporation efficiency [1, 3] | transgene (mTCR) expression, electroporation efficiency [1, 4] | cell clumping and floating dead cells (activated T cell culture) | lymphocyte survival after transfection (Primary human T cells; 24 hours post-electroporation of a plasmid, culture with vs without DNase) | percent recovery of the transfected cells (Primary human T cells; pMND-GFP plasmid at 36 hr post-stimulation) | percent recovery of the transfected cells (Primary human T cells; pMND-GFP plasmid at 48 hr post-stimulation) | GFP expression (percentage of GFP+ cells) (primary T cells; [5]) | mTCR expression (percentage of mTCR+ cells) (primary T cells; [5]) | integration efficiency, percentage of GFP-expressing cells (primary T cells; [6]) | integration efficiency, percentage of mTCR-expressing cells (primary T cells; [6])
CC(=O)N[C@@H](CS)C(=O)O [NAC, N-acetyl-cysteine] | increased |  |  |  |  |  |  |  |  |  |  |  |  |  | 
O=C(Nc1ccc(Br)cc1)c1ccc(Br)c(S(=O)(=O)NCc2ccccc2)c1 [RS-1, 3-((benzylamino)sulfonyl)-4-bromo-N-(4-bromophenyl)benzamide] |  | increased | increased | increased | increased | increased | increased |  |  |  |  |  |  |  | 
DNase |  | increased | increased | increased | increased | increased | increased | no cell clumps were visible; also recorded: did not show cell clumping or floating cell corpses | increased | increased | increased | promoted | promoted | increased | increased
